Test results taken from patent US20260325540A1 (priority 2023, published 2026).

How the values were obtained:
SARS-CoV-2 3CLpro = SARS-CoV-2 3CLpro (Severe acute respiratory syndrome coronavirus 2, UniProt P0DTD1); assay: FRET based protease assay, SARS-CoV-2 3CL; type: biochemical, SARS-CoV-2 (strain BetaCoV/Wuhan/WIV04/2019)
MERS-CoV 3CLpro = MERS-CoV 3CLpro (Middle East respiratory syndrome-related coronavirus, UniProt K9N638); assay: biochemical; settings: MERS IC50, 75 nM MERS-CoV 3CLpro, 6 μM peptide 1 substrate, 25° C., 1.5 hrs, pH 7.5
Sequence of MERS-CoV 3CLpro (K9N638 3248-3553 limits assumed): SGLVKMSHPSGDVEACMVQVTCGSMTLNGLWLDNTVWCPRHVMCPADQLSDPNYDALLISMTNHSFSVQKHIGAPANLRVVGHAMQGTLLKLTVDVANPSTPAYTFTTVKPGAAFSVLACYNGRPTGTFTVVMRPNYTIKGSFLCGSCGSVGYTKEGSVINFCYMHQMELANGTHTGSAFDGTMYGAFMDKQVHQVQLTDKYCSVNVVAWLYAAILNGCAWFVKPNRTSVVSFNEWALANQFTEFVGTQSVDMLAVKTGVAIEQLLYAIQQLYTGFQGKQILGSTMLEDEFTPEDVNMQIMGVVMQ

SMILES | IC50 (SARS-CoV-2 3CLpro) | IC50 (MERS-CoV 3CLpro)
CC(C)C[C@@H]1NC(=O)CCCCC[C@H]2CNC(=O)[C@H]2C[C@@H](C=O)NC1=O [Example 30] | 0.1 to 1 µM | 1 to 20 µM
CC1(C)[C@@H]2[C@H]3C(=O)N[C@H](C#N)C[C@@H]4C(=O)NC[C@@H]4CCCC[C@H](NC(=O)C4CCC(F)(F)CC4)C(=O)N3C[C@@H]21 [Example 68] | < 0.1 µM | < 0.1 µM
Cc1cc(C(=O)N[C@H]2CCCC[C@H]3CNC(=O)[C@H]3C[C@@H](C#N)NC(=O)[C@@H]3[C@@H]4[C@H](CN3C2=O)C4(C)C)on1 [Example 109] | < 0.1 µM | < 0.1 µM
CC1(C)[C@@H]2[C@H]3C(=O)N[C@H](C#N)C[C@@H]4C(=O)NC[C@@H]4CCCC[C@H](NC(=O)C4(C(F)(F)F)CC4)C(=O)N3C[C@@H]21 [Example 117] | < 0.1 µM | < 0.1 µM
CC(C)C[C@@H]1NC(=O)CCCCCC[C@@H]2CNCC(=O)[C@H]2C[C@@H](C=O)NC1=O [Example 51] | 1 to 20 µM | > 20 µM
CC(C)C[C@@H]1NC(=O)[C@@H](OC(C)(C)C)CCC[C@H]2CNC(=O)[C@@H]2C[C@@H](C=O)NC1=O [Example 20] | 1 to 20 µM | > 20 µM
CC(C)C[C@@H]1NC(=O)CCCCCC[C@@H]2CNC(=O)[C@H]2C[C@@H](C=O)NC1=O [Example 47] | 1 to 20 µM | > 20 µM
CC(C)C[C@@H]1NC(=O)CCCCC[C@H]2CNC(=O)[C@@H]2C[C@@H](C=O)NC1=O [Example 32] | 0.1 to 1 µM | 0.1 to 1 µM
CO[C@@H]1C[C@H]2C(=O)N[C@H](C#N)C[C@@H]3C(=O)NC[C@@H]3CCCC[C@H](NC(=O)OC(C)(C)C)C(=O)N2C1 [Example 147] | < 0.1 µM | 0.1 to 1 µM
CC(C)C[C@@H]1NC(=O)[C@@H](Cc2ccc(F)cc2)CCCC[C@@H]2CNC(=O)[C@@H]2C[C@@H](C#N)NC1=O [Example 42] | 1 to 20 µM | 1 to 20 µM
CC(C)C[C@@H]1NC(=O)[C@@H](Cc2ccccc2)CCCC[C@H]2CNC(=O)[C@@H]2C[C@@H](C=O)NC1=O [Example 37] | < 0.1 µM | 0.1 to 1 µM
CC(C)(C)C(=O)N[C@H]1CCCC[C@H]2CNC(=O)[C@H]2C[C@@H](C#N)NC(=O)[C@@H]2[C@@H]3[C@H](CN2C1=O)C3(C)C [Example 55] | < 0.1 µM | 0.1 to 1 µM
CC(C)(C)C[C@@H]1NC(=O)[C@@H](NC(=O)C(C)(C)C)CCCC[C@H]2CNC(=O)[C@H]2C[C@@H](C#N)NC1=O [Example 53] | < 0.1 µM | 0.1 to 1 µM
CC(C)(C)OC(=O)N[C@H]1CCCC[C@H]2CNC(=O)[C@H]2C[C@@H](C#N)NC(=O)[C@@H]2CC(F)(F)CN2C1=O [Example 131] | 0.1 to 1 µM | 0.1 to 1 µM
CC(C)(C)OC(=O)N[C@H]1CC/C=C/[C@H]2CCNC(=O)[C@H]2C[C@@H](C#N)NC(=O)[C@@H]2[C@H]3CCC[C@H]3CN2C1=O [Example 99] | 0.1 to 1 µM | 1 to 20 µM
CC(C)C[C@@H]1NC(=O)[C@@H](CC2CCCC2)CCC[C@H]2CNC(=O)[C@@H]2C[C@@H](C=O)NC1=O [Example 18] | 0.1 to 1 µM | 0.1 to 1 µM
CC(C)C[C@@H]1NC(=O)[C@H](Cc2ccccc2)CCC[C@H]2CNC(=O)[C@@H]2C[C@@H](C=O)NC1=O [Example 21] | < 0.1 µM | 0.1 to 1 µM
CC(C)C[C@@H]1NC(=O)[C@H](Cc2ccccc2)CCC[C@H]2CNC(=O)[C@H]2C[C@@H](C=O)NC1=O [Example 12] | 0.1 to 1 µM | 1 to 20 µM
N#C[C@@H]1C[C@@H]2C(=O)NC[C@@H]2CCCC[C@H](NC(=O)C2(C(F)(F)F)CC2)C(=O)N2C[C@@H]3CCC[C@@H]3[C@H]2C(=O)N1 [Example 150] | < 0.1 µM | < 0.1 µM
CC1(C)[C@@H]2[C@H]3C(=O)N[C@H](C#N)C[C@@H]4C(=O)NC[C@@H]4CCCC[C@H](NS(=O)(=O)C4(C)CC4)C(=O)N3C[C@@H]21 [Example 159] | < 0.1 µM | < 0.1 µM
Cc1cc(C(=O)N[C@H]2CCCC[C@H]3CNC(=O)[C@H]3C[C@@H](C#N)NC(=O)[C@@H]3[C@@H]4[C@H](CN3C2=O)C4(C)C)no1 [Example 122] | < 0.1 µM | < 0.1 µM
CC(C)C[C@@H]1NC(=O)CCCC[C@H]2CNC(=O)[C@H]2C[C@@H](C=O)NC1=O [Example 2] | 1 to 20 µM | > 20 µM

SMILES | IC50 (SARS-CoV-2 3CLpro) | IC50 (MERS-CoV 3CLpro)
CC(C)(C)OC(=O)N[C@H]1CCCC[C@H]2CNC(=O)[C@H]2C[C@@H](C#N)NC(=O)[C@@H]2CC3(CCN2C1=O)CC3 [Example 132] | < 0.1 µM | 0.1 to 1 µM
CC1(C)[C@@H]2[C@H]3C(=O)N[C@H](C#N)C[C@@H]4C(=O)NC[C@@H]4CCCC[C@H](Nc4ccnc(C(F)(F)F)n4)C(=O)N3C[C@@H]21 [Example 164] | < 0.1 µM | 0.1 to 1 µM
CC1(C)[C@@H]2[C@H]3C(=O)N[C@H](C#N)C[C@H]4C(=O)NC[C@@H]4CCCCC(=O)N3C[C@@H]21 [Example 25] | 1 to 20 µM | 1 to 20 µM
CC1(C)[C@@H]2[C@H]3C(=O)N[C@H](C#N)C[C@@H]4C(=O)NC[C@@H]4CCCC[C@H](NC(=O)C(C)(C)C(F)(F)F)C(=O)N3C[C@@H]21 [Example 141] | < 0.1 µM | < 0.1 µM
CC(C)C[C@@H]1NC(=O)[C@@H](Cc2ccccc2)CCC[C@H]2CNC(=O)[C@@H]2C[C@@H](C=O)NC1=O [Example 17] | 0.1 to 1 µM | 0.1 to 1 µM
CC(C)C[C@@H]1NC(=O)[C@@H](NC(=O)C(C)(C)C)CC/C=C/[C@H]2CNC(=O)[C@H]2C[C@@H](C#N)NC1=O [Example 58] | < 0.1 µM | 0.1 to 1 µM
CC(C)C[C@@H]1NC(=O)[C@@H](Cc2ccccc2)CCCCC[C@@H]2CNC(=O)[C@@H]2C[C@@H](C#N)NC1=O [Example 49] | > 20 µM | > 20 µM
CC(C)(C)OC(=O)N[C@H]1CCCC[C@H]2CNC(=O)[C@H]2C[C@@H](C#N)NC(=O)[C@@H]2[C@H]3CC[C@H](CC3)N2C1=O [Example 111] | 0.1 to 1 µM | 0.1 to 1 µM
CC(C)(C)C[C@@H]1NC(=O)[C@@H](NC(=O)C2(C(F)(F)F)CC2)CCCC[C@H]2CNC(=O)[C@H]2C[C@@H](C#N)NC1=O [Example 149] | < 0.1 µM | 0.1 to 1 µM
CC(C)C[C@@H]1NC(=O)CCCCC[C@H]2CCNC(=O)[C@@H]2C[C@@H](C=O)NC1=O [Example 34] | 0.1 to 1 µM | 1 to 20 µM
CC1(C)[C@@H]2[C@H]3C(=O)N[C@H](C#N)C[C@@H]4C(=O)NC[C@@H]4CCCC[C@H](NC(=O)C4CCCCC4)C(=O)N3C[C@@H]21 [Example 77] | < 0.1 µM | < 0.1 µM
CC(C)C[C@@H]1NC(=O)[C@@H](Cc2ccc(F)cc2)CCCC[C@H]2CNC(=O)[C@H]2C[C@@H](C#N)NC1=O [Example 43] | 1 to 20 µM | 1 to 20 µM
N#C[C@@H]1C[C@@H]2C(=O)NC[C@@H]2/C=C/CC[C@H](NC(=O)C(F)(F)F)C(=O)N2C[C@@H]3CCC[C@@H]3[C@H]2C(=O)N1 [Example 101] | < 0.1 µM | 0.1 to 1 µM
CC(C)C[C@@H]1NC(=O)[C@H](Cc2ccccc2)CCC[C@@H]2CNC(=O)[C@@H]2C[C@@H](C=O)NC1=O [Example 11] | 1 to 20 µM | 1 to 20 µM
CC(C)(C)OC(=O)N[C@H]1CCCC[C@H]2CNC(=O)[C@H]2C[C@@H](C#N)NC(=O)[C@@H]2[C@H]3CC[C@H](C3)N2C1=O [Example 127] | 1 to 20 µM | 1 to 20 µM
CC1(C)[C@@H]2[C@H]3C(=O)N[C@H](C#N)C[C@@H]4C(=O)NC[C@@H]4CCCC[C@H](NC(=O)C45CC(C(F)(F)F)(C4)C5)C(=O)N3C[C@@H]21 [Example 119] | < 0.1 µM | < 0.1 µM
Cc1nc(C(=O)N[C@H]2CCCC[C@H]3CNC(=O)[C@H]3C[C@@H](C#N)NC(=O)[C@@H]3[C@@H]4[C@H](CN3C2=O)C4(C)C)co1 [Example 115] | < 0.1 µM | < 0.1 µM
CC(C)C[C@@H]1NC(=O)[C@@H](NC(=O)OC(C)(C)C)CCCC[C@H]2CNC(=O)[C@H]2C[C@@H](C#N)NC1=O [Example 56] | 0.1 to 1 µM | 0.1 to 1 µM
CC(C)(C)C(=O)N[C@H]1CCCC[C@H]2CNC(=O)[C@H]2C[C@@H](C#N)NC(=O)[C@@H]2CCCN2C1=O [Example 74] | 1 to 20 µM | 1 to 20 µM
CC(C)(C)C(=O)N[C@H]1CCCC[C@H]2CNC(=O)[C@@H]2C[C@@H](C#N)NC(=O)[C@@H]2[C@@H]3[C@H](CN2C1=O)C3(C)C [Example 67] | 0.1 to 1 µM | 0.1 to 1 µM
CC(C)(C)COC(=O)N[C@H]1CCCC[C@H]2CNC(=O)[C@H]2C[C@@H](C#N)NC(=O)[C@@H]2[C@@H]3[C@H](CN2C1=O)C3(C)C [Example 106] | < 0.1 µM | 0.1 to 1 µM
CC1(C)[C@@H]2[C@H]3C(=O)N[C@H](C#N)C[C@@H]4C(=O)NC[C@@H]4CCCC[C@H](NC(=O)c4ccc(F)cc4F)C(=O)N3C[C@@H]21 [Example 103] | < 0.1 µM | < 0.1 µM
